From patent US5235045A, “Non-azo naphthalimide dyes” (priority 1992, dated 1993)

What was measured:
H9 cells = test: Cell viability in absence of light (trypan blue exclusion); type: cell-based, human; conditions: dark
Source text: (§1) Following the protocol of (1), above, H9 cells were stained with Compound lb, and the technique of fluorescent microscopy was used to determine visually the sites of localization of dye fluorescence in living cells. Specifically, H9 cells were counted with a hemocytometer and diluted to 5×10^5 /ml. […] Cytospin slides of the cell suspensions were made and they were examined with the fluorescence microscope (Olympus AH-2) using B excitation plus a 460 nm interference excitation filter and a 495 nm emission filter. The cells were also counted with a hemocytometer and their viability determined (see below). […] The former may reflect the diffusional component of the dye incorporation, or may reflect binding in the ER membrane. The latter may indicate lysosomal localization of pinocytosed dye as occurs with Lucifer Yellow.
(§2) Cell viability was determined using dye incorporated according to the protocol directly above. Viability was determined using a trypan blue dye exclusion test in which "live" cells with competent cell membranes exclude the dye. Table 5 summarizes the data obtained using cells exposed to Compound 1b in culture medium, and Table 6 summarizes data obtained using cells exposed to Compound VII.

[1] = as above; type: cell-based, human; conditions: dark
Source text: as §1, §2

Vero cells = test: Cellular toxicity in Vero cells (viral-medium suspension samples); type: cell-based
Experimental: (§3) Each sample including the stock virus were assayed on Vero cells for PFU/ml of HSV-1. The assay consisted of growing Vero cells in minimal essential medium with Hanks balanced salt solution supplemented with 10% fetal bovine serum, L-glutamine and antibiotics. Hepes buffer (2%) was added for growth in open plates (twelve well microplates from CO-star). Ten fold dilutions of each sample were prepared and 0.1 ml of the appropriate dilution for each individual sample was adsorbed at 37° C. for 1.5 hr. on a cell monolayer from which the growth medium had been removed. After the adsorption period, the cell monolayer was washed and an overlay consisting of equal volumes of 2X strength L-15 medium and 2% methylcellulose was added. Following an appropriate incubation time at 37° C. (about 4 days), the overlay medium was removed. Monolayers were fixed with methanol and stained with giemsa to elaborate the presence of plaques. The plaques were counted using a dissecting microscope at a magnification of 20X.
as §3, with “Co-star).” for “CO-star).”

[2] = Bleaching and recovery of fluorescence in aqueous suspension of Cremophor EL; type: physicochemical; conditions: for % Un-irradiated Fluorescence / initially activated species permanently losing fluorescence / initially activated species recovering fluorescence: Cremophor EL
Experimental: A 14.9 millimolar stock solution of Ed6Br in Cremophor EL was used to make 3 ml of a micellar Cremophor suspension having a concentration averaged over the entire sample volume of […]. A […] aliquot was removed and diluted with 2.9 ml of distilled water for measurement of fluorescence using an SLM 500C spectrofluorometer (excitation, 420 nm, emission, 520 nm). The 3 ml sample was divided into two 1.5 ml aliquots placed in quartz crusetts. One sample was irradiated with stirring with 420 # 5 nm filtered light from a xenon arc lamp with an irradiance of 20 mW/cm^2 and with the companion sample wrapped in aluminum foil (dark control) and maintained alongside of the irradiated sample. […] After the entire light treatment, both the illuminated and dark control samples were divided into two equal aliquots and held pairwise (dark+previously illuminated) at 4° C. and 20° C. in the absence of light. Aliquots of […] were taken from each sample after 18 and 43 hr and their fluorescence emission values determined using the SLM 500C instrument immediately after sampling.
In an experiment eventually following the protocol described immediately above in Part I (for Ed6Br), the light-induced bleaching of DiEd6Br with 200 J/cm^2 light exposure and recovery of its fluorescence upon standing in the dark at 22° C. were determined.

[3] = 1 μM, 100% human plasma 4 hours, 1 hour after
[4] = 1 μM, medium 24 hours, 1 hour after
[5] = 5 μM, 100% human plasma 4 hours, 1 hour after
[6] = 10 μM, medium 24 hours, 1 hour after
[7] = 25 μM, 100% human plasma 4 hours, 1 hour after
[8] = 25 μM, medium 24 hours, 1 hour after
[9] = 50 μM, medium 24 hours, 1 hour after
[10] = 5 μM, medium 1.5 hours, counted 2.5 hours after
[11] = 25 μM, medium 1.5 hours, counted 2.5 hours after

`CCCCCCNc1c(Br)cc2c3c(cccc13)C(=O)N(CCCCCC)C2=O` [Compound VII, 3-bromo-4-(hexyl)amino-N-hexyl-1,8-naphthalimide] showed a dead cells (H9 cells; [3]) of 12, a live cells (H9 cells; [3]) of 280 and a dead cells (H9 cells; [4]) of 23. It also gave a live cells (H9 cells; [4]) of 151, a dead cells (H9 cells; [5]) of 16 and a live cells (H9 cells; [5]) of 286. The dead cells (H9 cells; [6]) was 26, the live cells (H9 cells; [6]) was 104 and the dead cells (H9 cells; [7]) was 16. For the same compound, the live cells (H9 cells; [7]) was 339, the dead cells (H9 cells; [8]) was 38 and the live cells (H9 cells; [8]) was 148. It also gave a dead cells (H9 cells; [9]) of 128, a live cells (H9 cells; [9]) of 124 and a viability at 4 h, 1 µM [1, 3] of 95.9%. The viability at 4 h, 5 µM [1, 5] was 94.7%, the viability at 4 h, 25 µM [1, 7] was 95.5% and the viability at 24 h, 1 µM ([1]; human, 1 μM, medium 24 hours, 1 hour after) was 86.8%. The viability at 24 h, 10 µM ([1]; human, 10 μM, medium 24 hours, 1 hour after) was 80%, the viability at 24 h, 25 µM ([1]; human, 25 μM, medium 24 hours, 1 hour after) was 79.6% and the viability at 24 h, 50 µM ([1]; human, 50 μM, medium 24 hours, 1 hour after) was 42.5%. For the same compound, the cellular toxicity (Vero cells; Ed6Br, 8 concentrations, not irradiated) was “no evidence of cellular toxicity”, the “cellular toxicity of not previously irradiated samples” value (Vero cells; two concentrations, vs irradiated samples) was “significantly less cellular toxicity than the irradiated samples” and the “% Un-irradiated Fluorescence” value ([2]; 0 J/cm^2) was 100%. For the same compound, the “Fluorescence Recovery in Dark” value ([2]; 0 hour, 4° C.) was 18.2%, the “Fluorescence Recovery in Dark” value ([2]; 0 hour, 22° C.) was 18.2% and the “% Un-irradiated Fluorescence” value ([2]; 10 J/cm^2, 420 nm) was 97.8%. The “% Un-irradiated Fluorescence” value ([2]; 25 J/cm^2, 420 nm) was 96.2%, the “% Un-irradiated Fluorescence” value ([2]; 50 J/cm^2, 420 nm) was 74.9% and the “% Un-irradiated Fluorescence” value ([2]; 90 J/cm^2, 420 nm) was 48.7%. The “irradiation induced loss of fluorescent intensity” value ([2]; 200 J/cm^2) was “about 80%”, the “% Un-irradiated Fluorescence” value ([2]; 200 J/cm^2, 420 nm) was 18.2% and the “Fluorescence Recovery in Dark” value ([2]; 18 hour, 4° C.) was 24.6%. For the same compound, the “Fluorescence Recovery in Dark” value ([2]; 18 hour, 22° C.) was 39.4%, the “Fluorescence Recovery in Dark” value ([2]; 43 hour, 4° C.) was 36.8% and the “Fluorescence Recovery in Dark” value ([2]; 43 hour, 22° C.) was 56.7%. The “initially activated species permanently losing fluorescence” value [2] was “Approximately 50%”, the “initially activated species recovering fluorescence” value [2] was “Approximately 50%” and the “ultimate fluorescent intensity regained, of initial” value ([2]; after 200 J/cm^2) was “approximately 40%”. The “change of fluorescence emission intensity in absence of light” value ([2]; dark) was “lack of change of the value of fluorescence emission intensity”.

`CCCCCCNc1ccc2c3c(cccc13)C(=O)N(CCCCCC)C2=O` [Compound 1b, 4-(hexyl)amino-N-hexyl-1,8-naphthalimide] showed a dead cells (H9 cells; [10]) of 4, a live cells (H9 cells; [10]) of 116 and a dead cells (H9 cells; [11]) of 4. For the same compound, the live cells (H9 cells; [11]) was 136, the viability at 1.5 h, 5 µM ([1]; human, 5 μM, medium 1.5 hours, counted 2.5 hours after) was 96.7% and the viability at 1.5 h, 25 µM ([1]; human, 25 μM, medium 1.5 hours, counted 2.5 hours after) was 97.1%.

In the case of `CCCCCCN1C(=O)c2cccc3c(NCCNC(=O)CCCCC(=O)NCCNc4c(Br)cc5c6c(cccc46)C(=O)N(CCCCCC)C5=O)c(Br)cc(c23)C1=O` [Compound XLIV], the cellular toxicity (Vero cells; DiEd6Br, 2 concentrations, not irradiated (Table 18 experiment)) is reported as “no evidence of cellular toxicity”, the cellular toxicity (Vero cells; DiEd6Br, 8 concentrations, not irradiated (Table 15 experiment)) is reported as “no evidence of cellular toxicity” and the cellular toxicity (Vero cells; DiEd6Br, 8 concentrations, not irradiated (Table 16 experiment)) is reported as “no evidence of cellular toxicity”. For the same compound, the “fluorescence, % of initial (dark) value” ([2]; 200 J/cm^2, 420 nm) was 32.2%, the “fluorescence recovered, % of initial value” ([2]; 70 hours at 22° C.) was 62.7% and the “fluorescence recovered, % of initial value” ([2]; 166 hours at 22° C.) was 64.0%. The “initially activated species permanently losing fluorescence” value [2] was “Approximately 50%” and the “initially activated species recovering fluorescence” value [2] was “Approximately 50%”.
